Laboratory results from publication PMC5296862, “Targeting the molecular chaperone SlyD to inhibit bacterial growth with a small molecule” (Scientific Reports, 2017).
pKd: −log10 of the molar value.

Biological target: T1, SlyD (EcSlyD) (Escherichia coli, UniProt P0A9K9)
T1 construct: residues 1–165, lacking the unstructured C-terminal tail
Test: intrinsic fluorescence titration; supported by 2D 1H-15N HSQC NMR titration, in-cell NMR and PPIase inhibition (Ki […])
Assay type: binding

T1 sequence (P0A9K9 1-165): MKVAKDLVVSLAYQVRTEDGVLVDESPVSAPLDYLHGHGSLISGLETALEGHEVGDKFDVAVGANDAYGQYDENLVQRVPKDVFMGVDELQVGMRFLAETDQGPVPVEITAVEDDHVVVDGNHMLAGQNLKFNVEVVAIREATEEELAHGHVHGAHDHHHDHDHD

[Cu+2].c1ccc(-c2cc(-c3c4ccccc4cc4ccccc34)cc(-c3ccccn3)n2)nc1.c1ccc(-c2cc(-c3c4ccccc4cc4ccccc34)cc(-c3ccccn3)n2)nc1 [Cu2+ complex]
pKd: 4.35
